Measured values from patent US7582786B2, “Synthetic catalytic free radical scavengers useful as antioxidants for prevention and therapy of disease” (Eukarion Inc., priority 1996, dated 2009).
Entries after “also recorded” stand apart in the source; their conditions may differ.

Key:
xanthine oxidase = xanthine oxidase (Homo sapiens, UniProt P47989); assay: Control reaction for direct inhibition of xanthine oxidase (urate production at 290 nm); type: biochemical; details: 6 and 11 μM C7
Experimental: Superoxide dismutase (SOD) activity was assayed by following the inhibition of the reduction of an electron acceptor molecule in the presence of the free-radical generating system xanthine/xanthine oxidase (McCord et al. (1973) Superoxide and Superoxide Dismutase in “Oxidases and Related Redox Systems, vol. I, King et al. eds., University Park press, Baltimore, pp. 51-76). The assay mixture consisted of 50 mM sodium phosphate, pH 7.8, 120 μM xanthine, 0.2 units/ml xanthine oxidase, with acceptor molecule and salen manganese compound, as indicated. Assays were conducted at 27±0.2° C. using a water-jacketed cell holder in a Beckman DU7400 spectrophotometer. In most cases, oxidized cytochrome c, at 0.13 mg/ml, was employed as acceptor and its reduction was monitored spectrophotometrically at 550 nm. In some experiments, nitroblue tetrazolium (NBT), at 80 μM, was substituted for cytochrome c as the acceptor. NBT reduction was also monitored at 550 nm. An estimated extinction coefficient for NBT reduction, 20,800 M^−1cm^−1, determined empirically by exhaustive reduction of NBT in the reaction mixture described above, was employed where indicated. This value agreed well with reported extinction coefficients for reduced tetrazolium dyes. […] Conversion of xanthine to urate was calculated using ε290's of […] for urate and 4050 M^−1cm^−1 for xanthine. […]

[1] = Catalase activity, decomposition of hydrogen peroxide monitored at 240 nm (Example 1); type: biochemical; details: Example 1, H2O2 decomposition at 240 nm
Experimental: Catalase activity was measured using a spectrophotometric method in which the decomposition of hydrogen peroxide is monitored at 240 nm according to the method of Aebi et al. (1984) Methods Enzymol. 105: 121, incorporated herein by reference. One unit of catalase activity is defined as the amount of enzyme (or salen-metal complex) required to decompose 1 μmole of hydrogen peroxide in one minute.

SJL female mice = assay: Experimental autoimmune encephalomyelitis (EAE); type: in vivo, mouse
Description: EAE is an animal model of multiple sclerosis.
Mice in both groups were immunized with an encephalitogenic PLP peptide in complete Freund's adjuvant subcutaneously, followed by Petrussis Toxin (IV). Petrussis toxin was repeated on day 3 post immunization.

pigs = assay: Acute lung injury in endotoxemic pigs; type: in vivo, pig
Experimental: All pigs were pre-treated at T=−18 h with Escherichia coli 0111:B4 LPS (20 μg/kg). Pigs in the RL group (n=4) received no further treatment. […] Lung wet-to-dry weight ratio was determined post-mortem. Lung lipid peroxidation was estimated fluorometrically by measuring thiobarbituric acid reactive products in the lipid fraction of lung parenchymal tissue harvested at T=300 min.

[2] = system: dopaminergic neurons in mouse striatum; assay: 6-OHDA model of neuronal injury in mice (3H-mazindol binding in striatal homogenates); type: in vivo
Experimental: 6-OHDA in mice. Adult male CFW mice were anesthetized with ketamine and rumpun, and immobilized in a stereotaxic device. 6-OHDA, as the hydrobromide salt, was dissolved in normal saline with 1% ascorbate, and 50 μg was administered in lateral ventricle by means of a 10 μl Hamilton syringe. […] Animals were sacrificed 7 days later, and neuronal pathology was assessed by measuring ^3H-mazindol binding in striatal homogenates.

[3] = system: Rat hippocampal slices in culture; assay: Beta-amyloid peptide-induced cytotoxicity in hippocampal slice cultures; type: cell-based; details: C7 25 μM
Experimental: Rat hippocampal slices in culture were incubated with the beta-amyloid peptide (1-42) at the indicated concentrations. Cell viability was assessed by two criteria: release of lactate dehydrogenase (L*H) into the culture medium and staining with propidium […] iodide (PI) which binds to exposed DNA.
Rat hippocampal slice cultures were incubated with the beta-amyloid peptide (1-42) at the indicated concentrations. Cell viability was assessed by two criteria: release of lactate dehydrogenase (L*H) into the culture medium and staining with propidium iod*de (PI) which binds to exposed DNA.

Rats = assay: Rat model for stroke, Middle Cerebral Artery occlusion; type: in vivo; details: single intravenous injection 3 hr after MCA occlusion
Experimental: (§1) Rats were subjected to a Middle Cerebral Artery (MCA) Occlusion model involving permanent occlusion of the parietal branch of the left middle cerebral artery and temporary (60 min) occlusion of the common carotid arteries. As indicated, rats received a single intravenous injection of vehicle (Control), or C40 at 3 hr after the MCA was occluded. Twenty-one hr after MCA occlusion, brains were removed, sectioned, and stained with the viability dye TTC (2,3,5-triphenyltetrazolium chloride). The stained sections were photographed and the volumes of infarcted (unstained) and viable (red stained) brain tissue quantitated by image analysis.
as §1, with “occlusion” for “Occlusion”

[4] = T = 300 min, C7 10 mg/kg bolus at T=60 min then 10 mg/kg-h after LPS
[5] = C7 4×66 mg/kg i.p., 6-OHDA 50 μg i.c.v.

Chain of xanthine oxidase (P47989 whole entry, species assumed): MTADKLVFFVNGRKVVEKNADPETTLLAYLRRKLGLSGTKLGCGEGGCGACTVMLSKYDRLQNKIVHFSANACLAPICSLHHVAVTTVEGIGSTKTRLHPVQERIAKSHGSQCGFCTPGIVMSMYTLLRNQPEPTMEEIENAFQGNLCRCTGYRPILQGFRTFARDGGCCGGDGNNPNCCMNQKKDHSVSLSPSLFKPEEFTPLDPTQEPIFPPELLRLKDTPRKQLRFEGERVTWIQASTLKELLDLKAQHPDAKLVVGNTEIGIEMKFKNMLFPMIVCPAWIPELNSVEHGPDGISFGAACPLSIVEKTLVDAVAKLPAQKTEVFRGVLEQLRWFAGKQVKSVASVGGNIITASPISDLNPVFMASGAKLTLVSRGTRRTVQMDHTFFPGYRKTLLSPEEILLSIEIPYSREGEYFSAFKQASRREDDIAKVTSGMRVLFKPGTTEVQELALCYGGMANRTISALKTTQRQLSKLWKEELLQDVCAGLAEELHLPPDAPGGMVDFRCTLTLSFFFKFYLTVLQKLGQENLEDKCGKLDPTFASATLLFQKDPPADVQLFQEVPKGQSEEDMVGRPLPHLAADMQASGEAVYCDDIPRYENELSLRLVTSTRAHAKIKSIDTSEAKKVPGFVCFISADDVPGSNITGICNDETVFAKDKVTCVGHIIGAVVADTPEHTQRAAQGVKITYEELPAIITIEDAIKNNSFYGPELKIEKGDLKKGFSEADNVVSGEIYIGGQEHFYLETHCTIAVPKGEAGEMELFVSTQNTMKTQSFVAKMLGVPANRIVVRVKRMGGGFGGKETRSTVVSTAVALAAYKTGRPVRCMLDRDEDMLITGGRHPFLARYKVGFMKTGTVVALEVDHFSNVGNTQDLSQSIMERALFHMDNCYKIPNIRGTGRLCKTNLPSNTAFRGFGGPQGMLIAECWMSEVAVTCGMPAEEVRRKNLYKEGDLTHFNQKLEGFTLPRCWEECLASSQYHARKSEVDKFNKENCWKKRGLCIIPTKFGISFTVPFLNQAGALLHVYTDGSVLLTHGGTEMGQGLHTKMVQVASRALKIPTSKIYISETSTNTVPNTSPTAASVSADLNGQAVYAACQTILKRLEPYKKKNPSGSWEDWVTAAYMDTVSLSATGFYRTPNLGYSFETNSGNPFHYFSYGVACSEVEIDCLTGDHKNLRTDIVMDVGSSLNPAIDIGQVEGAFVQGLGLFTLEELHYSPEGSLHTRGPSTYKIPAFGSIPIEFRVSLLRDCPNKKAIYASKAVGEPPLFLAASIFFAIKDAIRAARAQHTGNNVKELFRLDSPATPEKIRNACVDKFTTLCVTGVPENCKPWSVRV

[Cl][Mn]1[O]c2ccccc2C=NCCN=Cc2ccccc2[O]1 [Compound C7]
effect on xanthine oxidase activity (xanthine oxidase): no effect; also recorded: without affecting
Catalase Activity [1]: 200 units/mM
mice developing symptomatic EAE (SJL female mice; fifth week, three weeks after treatment with C7 was stopped): six
mice developing symptomatic EAE (SJL female mice; third week following immunization, C7 1 mg/mouse IP daily, day -2 to 14): one of 10
% Cdyn, dynamic pulmonary compliance (pigs; [4]): 78 ± 4%
MDA, lung malondialdehyde level (pigs; [4]): 180 ± 27 pmols/mg dry weight
PaO2, arterial oxygenation (pigs; [4]): 148 ± 22 mm Hg
Ppa, mean pulmonary arterial pressure (pigs; [4]): 25 ± 3 mm Hg
W/D, lung wet-to-dry weight ratio (pigs; [4]): 6.4 ± 0.9
protection against effects of endotoxin (pigs; administered 60 min after onset of endotoxemia): protects against many of the deleterious effects of endotoxin
mazindol binding, contralateral striatum [2, 5]: complete protection
mazindol binding, ipsilateral striatum [2, 5]: significant reduction
crossing of the blood brain barrier ([2]; concluded from effects of peripheral injections in in vivo models): crosses the blood brain barrier
protection from 6-OHDA-induced degeneration ([2]; mouse, in vivo): protects dopaminergic neurons
protection from beta-amyloid peptide-induced cytotoxicity [3]: protect neurons; also recorded: protects neuronal tissue

COc1cccc2c1[O][Mn]([Cl])[O]c1c(cccc1OC)C=NCCN=C2 [Compound C40]
protection, infarct volume (Rats): protective
